According to PubChem BioAssay (NCI):
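Interpolation was linear, between the two tested concentrations surrounding the appropriate level; five concentrations were tested over 48 hours in 96-well plates. TGI marks complete inhibition of growth.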

What was measured:
Test in all cases: DTP human tumour cell line panel, 48 h
RPMI-8226 leukemia = test system: RPMI-8226 leukemia
UACC-62 melanoma = test system: UACC-62 melanoma
PC-3 prostate = test system: PC-3 prostate
UO-31 renal = test system: UO-31 renal
HCC-2998 colon = test system: HCC-2998 colon
NCI/ADR-RES ovarian = test system: NCI/ADR-RES ovarian
EKVX NSCLC = test system: EKVX NSCLC
SNB-75 CNS = test system: SNB-75 CNS
IGROV1 ovarian = test system: IGROV1 ovarian
SR leukemia = test system: SR leukemia
MDA-MB-231 breast = test system: MDA-MB-231 breast
SK-MEL-5 melanoma = test system: SK-MEL-5 melanoma
COLO 205 colon = test system: COLO 205 colon
M14 melanoma = test system: M14 melanoma
SK-OV-3 ovarian = test system: SK-OV-3 ovarian
HT29 colon = test system: HT29 colon
OVCAR-3 ovarian = test system: OVCAR-3 ovarian
CAKI-1 renal = test system: CAKI-1 renal
MDA-N = test system: MDA-N
SF-295 CNS = test system: SF-295 CNS
T-47D breast = test system: T-47D breast
OVCAR-8 ovarian = test system: OVCAR-8 ovarian
BT-549 breast = test system: BT-549 breast
NCI-H522 lung = test system: NCI-H522 lung
SW-620 colon = test system: SW-620 colon
SNB-19 CNS = test system: SNB-19 CNS
DU-145 prostate = test system: DU-145 prostate
MALME-3M melanoma = test system: MALME-3M melanoma
MDA-MB-435 = test system: MDA-MB-435
HOP-92 NSCLC = test system: HOP-92 NSCLC
SF-268 CNS = test system: SF-268 CNS
786-0 renal = test system: 786-0 renal
ACHN renal = test system: ACHN renal
U251 CNS = test system: U251 CNS
A549 NSCLC = test system: A549 NSCLC
SN12C renal = test system: SN12C renal
HCT-116 colon = test system: HCT-116 colon
SK-MEL-28 melanoma = test system: SK-MEL-28 melanoma
TK-10 renal = test system: TK-10 renal
K-562 leukemia = test system: K-562 leukemia
HL-60(TB) leukemia = test system: HL-60(TB) leukemia
NCI-H23 lung = test system: NCI-H23 lung
HOP-62 NSCLC = test system: HOP-62 NSCLC
CCRF-CEM leukemia = test system: CCRF-CEM leukemia
NCI-H460 lung = test system: NCI-H460 lung
OVCAR-4 ovarian = test system: OVCAR-4 ovarian
RXF 393 renal = test system: RXF 393 renal
SK-MEL-2 melanoma = test system: SK-MEL-2 melanoma
SF-539 CNS = test system: SF-539 CNS
KM12 colon = test system: KM12 colon
MCF7 breast = test system: MCF7 breast
UACC-257 melanoma = test system: UACC-257 melanoma
HCT-15 colon = test system: HCT-15 colon
LOX IMVI melanoma = test system: LOX IMVI melanoma
A498 renal = test system: A498 renal
OVCAR-5 ovarian = test system: OVCAR-5 ovarian
MOLT-4 leukemia = test system: MOLT-4 leukemia
NCI-H226 lung = test system: NCI-H226 lung

With CCOc1cc(CC[N+](C)(C)C)c2c(ccc3ccc(OC)c(OC)c32)c1OC the TGI (RPMI-8226 leukemia) was > 100 µM, the TGI (UACC-62 melanoma) was > 100 µM and the TGI (PC-3 prostate) was > 100 µM. The TGI (UO-31 renal) was > 100 µM, the TGI (HCC-2998 colon) was > 100 µM and the TGI (NCI/ADR-RES ovarian) was > 100 µM. The TGI (EKVX NSCLC) was > 100 µM, the TGI (SNB-75 CNS) was > 100 µM and the TGI (IGROV1 ovarian) was > 100 µM. For the same molecule, the TGI (SR leukemia) was > 100 µM, the TGI (MDA-MB-231 breast) was > 100 µM and the TGI (SK-MEL-5 melanoma) was > 100 µM. The TGI (COLO 205 colon) was > 100 µM, the TGI (M14 melanoma) was > 100 µM and the TGI (SK-OV-3 ovarian) was > 100 µM. The TGI (HT29 colon) was > 100 µM, the TGI (OVCAR-3 ovarian) was > 100 µM and the TGI (CAKI-1 renal) was > 100 µM. For the same molecule, the TGI (MDA-N) was > 100 µM, the TGI (SF-295 CNS) was > 100 µM and the TGI (T-47D breast) was > 100 µM. For the same molecule, the TGI (OVCAR-8 ovarian) was > 100 µM, the TGI (BT-549 breast) was > 100 µM and the TGI (NCI-H522 lung) was > 100 µM. The TGI (SW-620 colon) was > 100 µM, the TGI (SNB-19 CNS) was > 100 µM and the TGI (DU-145 prostate) was > 100 µM. The TGI (MALME-3M melanoma) was > 100 µM, the TGI (MDA-MB-435) was > 100 µM and the TGI (HOP-92 NSCLC) was > 100 µM. For the same molecule, the TGI (SF-268 CNS) was > 100 µM, the TGI (786-0 renal) was > 100 µM and the TGI (ACHN renal) was > 100 µM. The TGI (U251 CNS) was > 100 µM, the TGI (A549 NSCLC) was > 100 µM and the TGI (SN12C renal) was > 100 µM. The TGI (HCT-116 colon) was > 100 µM and the TGI (SK-MEL-28 melanoma) was > 100 µM.
In the case of CCOC(=O)CCCc1cc(=O)c2c(C)c3[nH]c4ccc(Cl)cc4c3c(C)c2[nH]1, the TGI (RPMI-8226 leukemia) is reported as > 100 µM, the TGI (TK-10 renal) is reported as 48.8 µM and the TGI (PC-3 prostate) is reported as 70.6 µM. For the same molecule, the TGI (UO-31 renal) was 45.4 µM, the TGI (HCC-2998 colon) was > 100 µM and the TGI (K-562 leukemia) was 79.6 µM. For the same molecule, the TGI (HL-60(TB) leukemia) was 82.3 µM, the TGI (NCI/ADR-RES ovarian) was 66.2 µM and the TGI (EKVX NSCLC) was > 100 µM. For the same molecule, the TGI (SNB-75 CNS) was 64 µM, the TGI (IGROV1 ovarian) was 86.4 µM and the TGI (NCI-H23 lung) was > 100 µM. For the same molecule, the TGI (HOP-62 NSCLC) was 44.4 µM, the TGI (SR leukemia) was > 100 µM and the TGI (MDA-MB-231 breast) was 69.7 µM. The TGI (SK-MEL-5 melanoma) was 49.2 µM, the TGI (COLO 205 colon) was > 100 µM and the TGI (M14 melanoma) was > 100 µM. The TGI (CCRF-CEM leukemia) was > 100 µM, the TGI (HT29 colon) was 53.8 µM and the TGI (OVCAR-3 ovarian) was 34.4 µM. The TGI (CAKI-1 renal) was 43.2 µM, the TGI (NCI-H460 lung) was 32.7 µM and the TGI (MDA-N) was > 100 µM. For the same molecule, the TGI (OVCAR-4 ovarian) was 59.1 µM, the TGI (SF-295 CNS) was 67 µM and the TGI (RXF 393 renal) was 27.1 µM. For the same molecule, the TGI (OVCAR-8 ovarian) was 59.8 µM, the TGI (SK-MEL-2 melanoma) was 71.8 µM and the TGI (BT-549 breast) was 41.8 µM. For the same molecule, the TGI (SF-539 CNS) was 31.6 µM, the TGI (KM12 colon) was > 100 µM and the TGI (MCF7 breast) was 47.4 µM. For the same molecule, the TGI (SW-620 colon) was > 100 µM, the TGI (SNB-19 CNS) was 60.7 µM and the TGI (UACC-257 melanoma) was > 100 µM. For the same molecule, the TGI (DU-145 prostate) was 57.2 µM, the TGI (HCT-15 colon) was > 100 µM and the TGI (LOX IMVI melanoma) was > 100 µM. The TGI (A498 renal) was 36.5 µM, the TGI (MALME-3M melanoma) was 73.2 µM and the TGI (MDA-MB-435) was 47.8 µM. For the same molecule, the TGI (HOP-92 NSCLC) was 68.2 µM, the TGI (SF-268 CNS) was 54 µM and the TGI (786-0 renal) was 38.2 µM. It also gave a TGI (ACHN renal) of 80.3 µM, a TGI (U251 CNS) of 50.5 µM and a TGI (A549 NSCLC) of 43.5 µM. For the same molecule, the TGI (SN12C renal) was 95.3 µM, the TGI (OVCAR-5 ovarian) was > 100 µM and the TGI (MOLT-4 leukemia) was > 100 µM. For the same molecule, the TGI (HCT-116 colon) was > 100 µM, the TGI (SK-MEL-28 melanoma) was > 100 µM and the TGI (NCI-H226 lung) was 61 µM.
